The subject of this assay is BDF1 mice, P388 leukemia ip, median survival T/C. Nature of the assay: NCI In Vivo Anticancer Drug Screen. Data for tumor model P388 Leukemia (intraperitoneal) in B6D2F1 (BDF1) mice. The conditions noted are these: endpoint: median survival time, higher = longer survival. The method, boiled down: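 Steps: implant the tumour, treat one group with compound and another with vehicle, record survival, then divide treated by control.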

Setting [1] is: dose: 25.0 mg/kg/injection, schedule: Q01DX009 (ip), vehicle: saline with Tween-80.
[2] abbreviates: dose: 50.0 mg/kg/injection, schedule: Q01DX009 (ip), vehicle: saline with Tween-80.
Where [3] appears, read: dose: 100.0 mg/kg/injection, schedule: Q04DX003 (ip), vehicle: saline with Tween-80.
The mark [4] stands for this setting: dose: 200.0 mg/kg/injection, schedule: Q04DX003 (ip), vehicle: saline with Tween-80.
[5] abbreviates: dose: 400.0 mg/kg/injection, schedule: Q04DX003 (ip), vehicle: saline with Tween-80.
Setting [6] is: dose: 50.0 mg/kg/injection, schedule: Q04DX003 (ip), vehicle: saline.
The mark [7] stands for this setting: dose: 100.0 mg/kg/injection, schedule: Q04DX003 (ip), vehicle: saline.
[8] abbreviates: dose: 200.0 mg/kg/injection, schedule: Q04DX003 (ip), vehicle: saline.
The mark [9] stands for this setting: dose: 100.0 mg/kg/injection, schedule: Q01DX009 (ip), vehicle: saline with Tween-80.
The mark [10] stands for this setting: dose: 200.0 mg/kg/injection, schedule: Q01DX009 (ip), vehicle: saline with Tween-80.
The mark [11] stands for this setting: dose: 50.0 mg/kg/injection, schedule: Q01DX009 (ip), vehicle: saline.
Where [12] appears, read: dose: 100.0 mg/kg/injection, schedule: Q01DX009 (ip), vehicle: saline.
The mark [13] stands for this setting: dose: 200.0 mg/kg/injection, schedule: Q01DX009 (ip), vehicle: saline.
[14] abbreviates: dose: 400.0 mg/kg/injection, schedule: Q01DX009 (ip), vehicle: saline with Tween-80.

Each structure is given as a SMILES string. “And” between values parts separate entries of the source, which are not always exact repeats. Identical values can stand only once. Inconclusive results and toxic doses are left out.

Take `CCCCCCCCCCOP(=S)(N1CC1)N1CC1`: the T/C is 108 % of control (dose: 12.5 mg/kg/injection, schedule: Q01DX009 (ip), vehicle: saline with Tween-80); 113 % of control (dose: 13.0 mg/kg/injection, schedule: Q04DX003 (ip), vehicle: saline with Tween-80); 152 % of control (dose: 20.0 mg/kg/injection, schedule: Q04DX003 (ip), vehicle: saline with Tween-80); 245 % of control under setting [1]; 169 % of control (dose: 33.0 mg/kg/injection, schedule: Q04DX003 (ip), vehicle: saline with Tween-80); 195 % of control (dose: 44.0 mg/kg/injection, schedule: Q04DX003 (ip), vehicle: saline with Tween-80). Also, the T/C was 183 % of control under setting [2]; 226 % of control (dose: 50.0 mg/kg/injection, schedule: Q04DX003 (ip), vehicle: saline with Tween-80); 272 % of control (dose: 67.0 mg/kg/injection, schedule: Q04DX003 (ip), vehicle: saline with Tween-80); 243 % of control (dose: 75.0 mg/kg/injection, schedule: Q04DX003 (ip), vehicle: saline with Tween-80); 272 % of control under setting [3]; 165 % of control (dose: 125.0 mg/kg/injection, schedule: Q04DX003 (ip), vehicle: saline with Tween-80). In addition, where the note is “dose: 150.0 mg/kg/injection, schedule: Q04DX003 (ip), vehicle: saline with Tween-80”, the T/C was 272 % of control.

For the compound `CCc1ccc(NC(=O)c2cccc(Cl)c2)cc1`, the T/C is, setting by setting: under setting [3], 109 % of control; under setting [4], 109 % of control; under setting [5], 109 % of control.

Turning to `Cn1cnc([N+](=O)[O-])c1[Se]c1nc(N)nc2c1ncn2C1CC(O)C(CO)O1` (stereo not given), the T/C under setting [6] is 95 % of control, the T/C under setting [7] was 90 % of control and the T/C under setting [8] is 90 % of control.

As for `CCCCCCC#CC(=O)O`, the T/C runs as follows: under setting [2], 100 % of control; (dose: 50.0 mg/kg/injection, schedule: Q01DX009 (sc), vehicle: olive oil, sesame oil, peanut oil) 96 % of control; under setting [9], 98 % of control; (dose: 100.0 mg/kg/injection, schedule: Q01DX009 (sc), vehicle: olive oil, sesame oil, peanut oil) 96 % of control; (dose: 100.0 mg/kg/injection, schedule: Q04DX003 (sc), vehicle: olive oil, sesame oil, peanut oil) 100 % of control; under setting [10], 116 % of control. Further, the T/C (dose: 200.0 mg/kg/injection, schedule: Q01DX009 (sc), vehicle: olive oil, sesame oil, peanut oil) is 92 % of control and the T/C (dose: 200.0 mg/kg/injection, schedule: Q04DX003 (sc), vehicle: olive oil, sesame oil, peanut oil) is 96 % of control.

As for `C/C=C1\C[N+]2(C)CCc3c([nH]c4ccccc34)C2CC1Cc1nccc2c1[nH]c1ccccc12` (stereo not given), the T/C (dose: 1.0 mg/kg/injection, schedule: Q04DX003 (ip), vehicle: saline) was 107 % of control; the T/C (dose: 2.0 mg/kg/injection, schedule: Q04DX003 (ip), vehicle: saline) is 98 % of control; the T/C (dose: 4.0 mg/kg/injection, schedule: Q04DX003 (ip), vehicle: saline) was 98 % of control; the T/C (dose: 6.0 mg/kg/injection, schedule: Q04DX003 (ip), vehicle: saline) was 102 % of control; the T/C (dose: 12.0 mg/kg/injection, schedule: Q04DX003 (ip), vehicle: saline) was 113 % of control; the T/C (dose: 24.0 mg/kg/injection, schedule: Q04DX003 (ip), vehicle: saline) is 118 % of control. Further, for the setting “dose: 48.0 mg/kg/injection, schedule: Q04DX003 (ip), vehicle: saline”, the T/C was 110 % of control.

As to `O=C1C(F)=C(N2CC2)C(=O)C(N2CCOCC2)=C1N1CC1`, the T/C reads like this: (dose: 3.0 mg/kg/injection, schedule: Q01DX009 (ip), vehicle: saline) 157 % of control; (dose: 6.0 mg/kg/injection, schedule: Q01DX009 (ip), vehicle: saline) 99 % of control.

`O=S(=O)(Nc1ccc(NS(=O)(=O)c2ccccc2)c(S(=O)(=O)c2ccccc2)c1)c1ccccc1`: the T/C reads like this: (dose: 100.0 mg/kg/injection, schedule: Q01DX001 (ip), vehicle: saline with Tween-80) 100 % of control; (dose: 200.0 mg/kg/injection, schedule: Q01DX001 (ip), vehicle: saline with Tween-80) 100 % of control; (dose: 400.0 mg/kg/injection, schedule: Q01DX001 (ip), vehicle: saline with Tween-80) 100 % of control.

On to `CCC(O)Cc1c[nH]c(=O)[nH]c1=O` (stereo not given), for which the T/C under setting [11] was 90 % of control; the T/C under setting [6] was 104 % of control; the T/C under setting [12] is 105 % of control; the T/C under setting [7] was 102 % of control; the T/C under setting [13] was 112 % of control; the T/C under setting [8] was 109 % of control.

`COc1ccccc1/C=C(/C)[N+](=O)[O-]`: the T/C is, setting by setting: (dose: 10.0 mg/kg/injection, schedule: Q01DX010 (ip), vehicle: steriod suspending solution) 90 % of control; (dose: 14.0 mg/kg/injection, schedule: Q01DX010 (ip), vehicle: steriod suspending solution) 110 % of control; (dose: 22.0 mg/kg/injection, schedule: Q01DX010 (ip), vehicle: steriod suspending solution) 120 % of control; (dose: 33.0 mg/kg/injection, schedule: Q01DX010 (ip), vehicle: carboxymethylcellulose (CMC)) 175 % of control; (dose: 33.0 mg/kg/injection, schedule: Q01DX010 (ip), vehicle: steriod suspending solution) 120 % of control; (dose: 50.0 mg/kg/injection, schedule: Q01DX010 (ip), vehicle: steriod suspending solution) 120 % of control. In addition, the T/C is 110 % of control (dose: 70.0 mg/kg/injection, schedule: Q01DX010 (ip), vehicle: steriod suspending solution) and 95 % of control (dose: 75.0 mg/kg/injection, schedule: Q01DX010 (ip), vehicle: carboxymethylcellulose (CMC)).

As to `N#CC1CCCCC1C1(C#N)CCCCC1Cc1ccccn1` (stereo not given), the T/C (dose: 100.0 mg/kg/injection, schedule: Q04DX002 (ip), vehicle: saline with Tween-80) is 98 % of control; the T/C (dose: 200.0 mg/kg/injection, schedule: Q04DX002 (ip), vehicle: saline with Tween-80) was 107 % of control; the T/C (dose: 400.0 mg/kg/injection, schedule: Q04DX002 (ip), vehicle: saline with Tween-80) is 92 % of control.

Take `COCC(O)CN1CCN(c2ccccc2C)CC1` (stereo not given): the T/C reads like this: under setting [1], 87 % of control; under setting [2], 95 % of control; under setting [9], 91 % of control.

For `O=c1[nH]cnc2n[nH]nc12`, the T/C is 108 % of control under setting [9]; 104 % of control under setting [3]; 124 % of control under setting [10]; 113 % of control under setting [4]; 100 % of control under setting [14]; 104 % of control under setting [5].

In the case of `CC[C@H](CC[C@@H](C)[C@H]1CC[C@H]2[C@@H]3CC[C@H]4C[C@@H](O)CC[C@]4(C)[C@H]3CC[C@]12C)C(C)C`, the T/C is, setting by setting: under setting [3], 100 % of control; under setting [10], 95 % of control; under setting [14], 100 % of control; under setting [5], 86 % of control.

With `CCC(C)(C)c1ccc(OCCOS(=O)(=O)c2ccc(C)cc2)cc1`, the T/C was 95 % of control (dose: 12.5 mg/kg/injection, schedule: Q04DX003 (ip), vehicle: saline); 100 % of control (dose: 25.0 mg/kg/injection, schedule: Q04DX003 (ip), vehicle: saline); 91 % of control under setting [6].

With `CCN(C(=O)C(F)(F)F)C1(c2ccc(Cl)cc2)CCCCC1SSSC1CCCCC1(c1ccc(Cl)cc1)N(CC)C(=O)C(F)(F)F` (stereo not given), the T/C was 100 % of control under setting [3], 100 % of control under setting [4] and 104 % of control under setting [5].

On to `O=C(O)C(Cl)Cc1cnc[nH]1` (stereo not given), for which the T/C is, setting by setting: under setting [11], 97 % of control and 91 % of control; under setting [12], 107 % of control and 87 % of control; under setting [13], 103 % of control and 95 % of control.

Regarding `CCSC1(SCC)C(=O)OC2=C(CCCC2)C1N1CCOCC1` (stereo not given), the T/C under setting [2] was 99 % of control, the T/C under setting [9] is 99 % of control and the T/C under setting [10] was 94 % of control.

For `O=C(COc1ccc(Cl)cc1Cl)Nc1ccc(F)cc1`, the T/C was 95 % of control under setting [3], 100 % of control under setting [4] and 90 % of control under setting [5].

For the compound `Cc1cc(C)cc(NC(=O)c2ccccc2N)c1`, the T/C was 95 % of control under setting [9]; 109 % of control under setting [3]; 95 % of control under setting [10]; 90 % of control under setting [4]; 104 % of control under setting [14]; 100 % of control under setting [5].
